Measurements as given in PMC11696576, “Next generation thiazolyl ketone inhibitors of cytosolic phospholipase A2 α for targeted cancer therapy” (Nature Communications, 2025).
Values joined by “and” are separate entries in the source; they are usually repeats but may differ in a detail not shown here. Equal entries are not always repeated.

Tests used:
[1] = viability of PBMCs (CTG and propidium iodide exclusion); type: cell-based, human; conditions: human, read-out: PBMC viability relative to 0 µM = 100 (Figure S8a)
Description: (§1) Propidium iodide exclusion was used to assess cell death by flow cytometry. After treatment, the cells were washed once with PBS and stained with 1.4 μg/mL propidium iodide (PI) for 5 min before quantification of PI negative and positive cells using a CytoFLEX flow cytometer (California, United States). An example of the gating strategy to assess PI staining can be found in Fig. S8c. […]
(§2) cells. a. CTG assays were used to assess viability of PBMCs isolated from human blood after treatment with vehicle control (DMSO) or AVX420 at the indicated doses for either (i) 24 hours or (ii) 72 hours. Data are the mean ±stdev of 4 or 5 biological replicates respectively. b. The propidium iodide exclusion assay was used to assess vi-ability of ungated PBMCs treated with AVX420 at the indicated doses for 24 hours .
(§3) Data are the mean ±stdev from 8 biological replicates (1-16 µM) and 5 biological rep- […]
(§4) iodide exclusion in CD3+ lymphocytes (T-cells). Cells appearing in the bottom right quadrant are PI-negative (live) T-cells while cells in the top right quadrant are PI-posi- […]
(§5) (1 picture or pasted object on this page, not shown here)

PBMCs = assay: as above; type: cell-based, human; conditions: for PI Negative (Figure S8b) / PI Positive (Figure S8b): replicates; for PI Negative (Figure S8b) / PI Positive (Figure S8b) / PBMC viability relative to 0 µM = 100 (Figure S8a): listed as AVX420
Description: as §1, §2, §3, §4, §5

CCRF-CEM cells = assay: cell viability, CTG assay, CCRF-CEM; conditions: for cell viability (0 µM = 100): listed as AVX420; for cell viability (Control = 100): VEH
Description: Data are the mean ± stdev of 3 biological replicates. c Viability of healthy T-cells measured by propidium iodide (PI) exclusion. Data are the mean ± stdev of 8 biological replicates for 1–16 µM AVX420, 5 for 32 µM AVX420 and 2 for 0.5 µM Staurosporine (Stau). d Cell viability measured by CTG assay in cells preincubated with 2.5 mM glutathione (GSH) or 2.5 mM N-acetyl cysteine (NAC) for 30 min before addition of 0.5 or 1 µM AVX420, 0.06 µM RSL-3, or 0.06 µM ML-210 for 24 h. Data are the mean ± stdev of 3 biological replicates. P-values were determined by one-way ANOVA with Dunnett’s correction for multiple testing and **** indicates P < 0.0001. e Cell viability measured by CTG assay. CCRF-CEM or Jurkat cells were co-treated with 0.5 µM AVX420 and either arachidonic acid (AA) at concentrations ranging from 1 to 100 µM or a mixture of 9 eicosanoids: 6-keto prostaglandin F1α, Thromboxane B2, prostaglandin F2α, prostaglandin E2, prostaglandin D2, 12(S)-HHTrE, 15(S)-HETE,12(S)-HETE, 5(S)-HETE at a final concentration of 2 ng/mL each (EIC-mix) for 24 h. Data are the mean ± stdev of 3 biological replicates. P-values were determined by two-way ANOVA with Sidak’s correction for multiple comparisons. f Proportion of intracellular ROS-positive cells measured by ROS-red staining and flow cytometry. Cells were treated with indicated concentrations of AVX420 (µM), 1 mM H2O2, 1 µM RSL-3, or 1 µM doxorubicin (dox) for 4 h. Data are the mean ± stdev of 3 biological replicates. g Intracellular ROS measurements in CCRF-CEM cells treated with AVX420 (0.5 µM), AVX002 (8 µM), or AACOCF3 (8 µM) for 4 h.
All cell lines were confirmed to be free of mycoplasma contamination. The cell lines were not authenticated. MV-4-11 were cultured in Iscove’s Modified Dulbecco’s Medium (Sigma, I3390). CCRF-CEM, Jurkat E6.1, and HL-60 cells were cultured in RPMI 1640 Medium RPMI-1640 medium (Sigma, R5886).

## CCCCCCCOc1ccc(OCC(=O)c2nc(C(=O)OC)cs2)cc1 [GK420]
[1]; PBMC 72H, 1 µM, rep1-5
  viability at 72 h, 1 µM: 103%
[1]; PMBC 24H, 0.5 µM, rep1-4
  viability at 24 h, 0.5 µM: 99%
[1]; PMBC 24H, 1 µM, rep1-4
  viability at 24 h, 1 µM: 102%
[1]; PMBC 24H, 2 µM, rep1-4
  viability at 24 h, 2 µM: 98%
[1]; PMBC 24H, 4 µM, rep1-4
  viability at 24 h, 4 µM: 101%
[1]; PMBC 24H, 8 µM, rep1-4
  viability at 24 h, 8 µM: 102%
[1]; PMBC 24H, 16 µM, rep1-4
  viability at 24 h, 16 µM: 102%
[1]; PMBC 24H, 32 µM, rep1-4
  viability at 24 h, 32 µM: 101%
PBMCs; 0.5 µM
  PI Negative (Figure S8b): 87 (3×) and 88 and 86 (2×) and 81 and 79
  PI Positive (Figure S8b): 12 and 14 (2×) and 13 (3×) and 19 and 21
PBMCs; 1 µM
  PI Negative (Figure S8b): 86 (3×) and 88 and 87 (2×) and 81 and 79
  PI Positive (Figure S8b): 12 and 14 (3×) and 13 (2×) and 19 and 21
PBMCs; 2 µM
  PI Negative (Figure S8b): 86 (3×) and 88 and 85 and 81 and 79 and 87
  PI Positive (Figure S8b): 12 and 15 and 14 (3×) and 19 and 21 and 13
PBMCs; 4 µM
  PI Negative (Figure S8b): 87 (2×) and 88 and 85 and 86 and 80 and 79 and 84
  PI Positive (Figure S8b): 12 and 15 and 14 and 20 and 21 and 13 (2×) and 16
PBMCs; 8 µM
  PI Negative (Figure S8b): 86 and 88 and 84 (2×) and 80 and 77 and 85 and 83
  PI Positive (Figure S8b): 12 and 16 (2×) and 20 and 23 and 15 and 17 and 14
PBMCs; 16 µM
  PI Negative (Figure S8b): 86 and 88 and 84 (3×) and 80 and 74 and 81
  PI Positive (Figure S8b): 12 and 16 (3×) and 20 and 26 and 19 and 14
PBMCs; 32 µM
  PI Negative (Figure S8b): 82 and 84 and 79 and 81 and 80
  PI Positive (Figure S8b): 16 and 21 and 19 and 20 and 18
PBMCs; PBMC 72H, 0.5 µM, rep1-5
  PBMC viability relative to 0 µM = 100 (Figure S8a): 100 and 93 (2×) and 120
PBMCs; PBMC 72H, 1 µM, rep1-5
  PBMC viability relative to 0 µM = 100 (Figure S8a): 91 and 93 and 110 and 97
PBMCs; PBMC 72H, 4 µM, rep1-5
  PBMC viability relative to 0 µM = 100 (Figure S8a): 111 and 89 and 93 and 118 and 88
PBMCs; PBMC 72H, 8 µM, rep1-5
  PBMC viability relative to 0 µM = 100 (Figure S8a): 113 and 75 and 87 and 109 and 93
PBMCs; PBMC 72H, 16 µM, rep1-5
  PBMC viability relative to 0 µM = 100 (Figure S8a): 109 and 80 and 83 and 90
PBMCs; PBMC 72H, 32 µM, rep1-5
  PBMC viability relative to 0 µM = 100 (Figure S8a): 104 and 88 and 82 and 76 and 96
PBMCs; PMBC 24H, 0.5 µM, rep1-4
  PBMC viability relative to 0 µM = 100 (Figure S8a): 100 and 97 (2×)
PBMCs; PMBC 24H, 1 µM, rep1-4
  PBMC viability relative to 0 µM = 100 (Figure S8a): 94 and 95
PBMCs; PMBC 24H, 2 µM, rep1-4
  PBMC viability relative to 0 µM = 100 (Figure S8a): 97
PBMCs; PMBC 24H, 4 µM, rep1-4
  PBMC viability relative to 0 µM = 100 (Figure S8a): 97 and 96
PBMCs; PMBC 24H, 8 µM, rep1-4
  PBMC viability relative to 0 µM = 100 (Figure S8a): 105
PBMCs; PMBC 24H, 32 µM, rep1-4
  PBMC viability relative to 0 µM = 100 (Figure S8a): 104
PBMCs; up to a maximum dose tested of 32 µM
  effect on healthy PBMCs: no effect
CCRF-CEM cells; 0.007 µM, 24H
  cell viability (0 µM = 100): 100
CCRF-CEM cells; 0.015 µM, 24H
  cell viability (0 µM = 100): 90
CCRF-CEM cells; 0.015 µM, 72H
  cell viability (0 µM = 100): 81
CCRF-CEM cells; 0.031 µM, 24H
  cell viability (0 µM = 100): 99
CCRF-CEM cells; 0.062 µM, 24H
  cell viability (0 µM = 100): 103
CCRF-CEM cells; 0.062 µM, 48H
  cell viability (0 µM = 100): 84
CCRF-CEM cells; 0.062 µM, 72H
  cell viability (0 µM = 100): 70
CCRF-CEM cells; 0.125 µM, 72H
  cell viability (0 µM = 100): 45 and 46
CCRF-CEM cells; 0.25 µM, 24H
  cell viability (0 µM = 100): 69 and 65
CCRF-CEM cells; 0.25 µM, 48H
  cell viability (0 µM = 100): 43
CCRF-CEM cells; 0.25 µM, 72H
  cell viability (0 µM = 100): 16 and 24
CCRF-CEM cells; 0.5 µM, 24H
  cell viability (0 µM = 100): 42 and 39
CCRF-CEM cells; 0.5 µM, 48H
  cell viability (0 µM = 100): 19
CCRF-CEM cells; 0.5 µM, 72H
  cell viability (0 µM = 100): 5.44 and 10
CCRF-CEM cells; 0.5 µM, listed as AVX420, 0.5 µM
  cell viability (Control = 100): 56 and 50
CCRF-CEM cells; 1 µM, 24H
  cell viability (0 µM = 100): 23
CCRF-CEM cells; 1 µM, 48H
  cell viability (0 µM = 100): 10
CCRF-CEM cells; 1 µM, 72H
  cell viability (0 µM = 100): 3 and 4.53
CCRF-CEM cells; 1 µM, listed as AVX420, 1 µM
  cell viability (Control = 100): 38
CCRF-CEM cells; 2 µM, 24H
  cell viability (0 µM = 100): 11
CCRF-CEM cells; 2 µM, 48H
  cell viability (0 µM = 100): 3 and 2
CCRF-CEM cells; 2 µM, 72H
  cell viability (0 µM = 100): 1.13
CCRF-CEM cells; 4 µM, 72H
  cell viability (0 µM = 100): 0.147
CCRF-CEM cells; CTG
  effect on viability: strong dose-dependent effect
